Tests used:
[1] = biological target: E3 ubiquitin-protein ligase Mdm2 (Homo sapiens, UniProt Q00987); assay: Binding affinity to MDM2 (1 to 118 residues) (unknown origin) assessed as inhibition constant incubated for 1 hr measured by fluorescence polarization assay
[2] = tested on: HCT-116; assay: Antiproliferative activity against human HCT-116 cells overexpressing MDM2 assessed as cell growth inhibition incubated for 72 hrs by CCK-8 assay; format: functional, cell-based; conditions: HCT-116, 72 h
[3] = tested on: SH-SY5Y; assay: Antiproliferative activity against human SH-SY5Y cells overexpressing MDMX assessed as cell growth inhibition incubated for 72 hrs by CCK-8 assay; format: functional, cell-based
[4] = Antiproliferative activity against human HCT116-p53-null cells overexpressing MDMX assessed as cell growth inhibition incubated for 72 hrs by CCK-8 assay; format: functional, cell-based
[5] = tested on: SJSA-1; assay: Antiproliferative activity against human SJSA-1 cells overexpressing MDM2 assessed as cell growth inhibition incubated for 72 hrs by CCK-8 assay; format: functional, cell-based; conditions: SJSA-1, 72 h
[6] = tested on: HCT-116; assay: Antiproliferative activity against human HCT-116 cells overexpressing MDM2 assessed as cell growth inhibition incubated at 10 uM for 72 hrs by CCK-8 assay relative to control; format: functional
[7] = tested on: SH-SY5Y; assay: Antiproliferative activity against human SH-SY5Y cells overexpressing MDMX assessed as cell growth inhibition incubated at 10 uM for 72 hrs by CCK-8 assay relative to control; format: functional
[8] = biological target: T1, Protein Mdm4 (Homo sapiens, UniProt O15151); assay: Binding affinity to MDMX (1 to 118 residues) (unknown origin) assessed as inhibition constant incubated for 1 hr measured by fluorescence polarization assay
T1 sequence (O15151 whole entry): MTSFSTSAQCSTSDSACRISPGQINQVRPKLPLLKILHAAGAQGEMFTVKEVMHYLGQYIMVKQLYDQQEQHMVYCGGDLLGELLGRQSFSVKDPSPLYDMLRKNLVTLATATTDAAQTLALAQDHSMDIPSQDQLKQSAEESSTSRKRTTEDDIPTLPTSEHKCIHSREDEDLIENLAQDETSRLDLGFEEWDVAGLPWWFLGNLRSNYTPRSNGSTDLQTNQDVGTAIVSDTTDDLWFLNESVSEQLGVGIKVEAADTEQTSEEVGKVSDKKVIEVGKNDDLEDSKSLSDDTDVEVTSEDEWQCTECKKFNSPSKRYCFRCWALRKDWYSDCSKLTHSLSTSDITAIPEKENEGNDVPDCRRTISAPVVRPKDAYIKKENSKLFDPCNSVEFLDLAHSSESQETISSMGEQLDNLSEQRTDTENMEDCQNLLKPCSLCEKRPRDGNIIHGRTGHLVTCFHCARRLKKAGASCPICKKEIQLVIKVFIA

Chain of E3 ubiquitin-protein ligase Mdm2 (Q00987 whole entry, the tested form may be a part): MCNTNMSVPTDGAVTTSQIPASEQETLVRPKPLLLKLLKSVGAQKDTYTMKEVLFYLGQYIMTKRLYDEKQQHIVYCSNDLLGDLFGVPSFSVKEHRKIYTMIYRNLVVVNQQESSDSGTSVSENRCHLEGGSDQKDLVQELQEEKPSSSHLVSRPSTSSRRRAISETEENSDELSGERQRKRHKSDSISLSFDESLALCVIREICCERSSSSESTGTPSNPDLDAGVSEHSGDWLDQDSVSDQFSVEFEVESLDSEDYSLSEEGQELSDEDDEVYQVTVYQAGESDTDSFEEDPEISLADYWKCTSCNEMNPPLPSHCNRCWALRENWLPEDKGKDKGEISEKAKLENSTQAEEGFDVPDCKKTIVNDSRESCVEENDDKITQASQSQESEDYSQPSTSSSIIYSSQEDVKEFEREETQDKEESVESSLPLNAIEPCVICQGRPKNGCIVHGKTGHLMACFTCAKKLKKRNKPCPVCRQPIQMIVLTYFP

SMILES	Ki [1] [µM]	IC50 [2] [µM]	IC50 [3] [µM]	IC50 [4] [µM]	IC50 [5] [µM]	inhibition at 10 µM [6] [%]	inhibition at 10 µM [7] [%]	Ki [8] [µM]
Cc1cc(Cl)cc(NC(C(=O)c2ccc(Cl)cc2)c2ccc(F)c(Cl)c2)c1 (stereo unspecified)	17.4	16.4	17.5	–	–	–	–	–
O=C(O)CCCCC(=O)N(c1ccc(Cl)cc1)C(C(=O)c1ccc(Cl)cc1)c1ccc(F)cc1Cl (stereo unspecified)	0.71	10.4	9.47	26.3	11.4	–	–	–
O=C(c1ccc(Cl)cc1)C(Cc1cc2ccccc2cn1)C(=O)c1cc(F)ccc1F (stereo unspecified)	21.8	–	–	–	–	36.7	9.44	–
O=C(c1ccc(Cl)cc1)C(Nc1ccc(Cl)c(Cl)c1)c1ccc(Cl)c(Cl)c1 (stereo unspecified)	4.29	12.3	14.4	–	–	–	–	–
COC(=O)/C=C/C(=O)N(c1ccc(Cl)cc1)C(C(=O)c1ccc(Cl)cc1)c1ccc(F)cc1Cl (stereo unspecified)	1.46	18.9	19.5	37.1	17.4	–	–	–
COc1ccc(C(=O)C(Nc2ccccc2)c2ccccc2)cc1 (stereo unspecified)	25.8	> 40	> 40	–	–	–	–	–
O=C(c1ccc(Cl)cc1)C(Cc1cccc(F)c1)C(=O)c1cc(F)ccc1F (stereo unspecified)	12.8	–	–	–	–	14.3	18.9	–
Cc1cc(Cl)cc(NC(C(=O)c2ccc(F)cc2)c2ccc(F)c(Cl)c2)c1 (stereo unspecified)	19.7	18.5	18.2	–	–	–	–	–
COC(=O)CCCC(=O)N(c1ccc(Cl)cc1)C(C(=O)c1ccc(Cl)cc1)c1ccc(F)cc1Cl (stereo unspecified)	1.15	16.1	14.2	28.2	14.9	–	–	–
O=C(O)CCC(=O)N(c1ccc(Cl)cc1)C(C(=O)c1ccc(Cl)cc1)c1ccc(F)cc1Cl (stereo unspecified)	1.07	14.2	8.13	36.4	12	–	–	–
O=C(c1ccc(Br)cc1)C(Nc1ccc(Cl)cc1)c1ccc(Cl)cc1 (stereo unspecified)	13.2	21.9	20.4	–	–	–	–	–
CC(C)(C)OC(=O)N1CCN(C(=O)CCC(=O)N(c2ccc(Cl)cc2)C(C(=O)c2ccc(Cl)cc2)c2ccc(F)cc2Cl)CC1 (stereo unspecified)	0.73	9.98	11.8	17.4	9.47	–	–	36.8
COC(=O)c1ccc(NC(=O)CCC(=O)N(c2ccc(Cl)cc2)C(C(=O)c2ccc(Cl)cc2)c2ccc(F)cc2Cl)cc1 (stereo unspecified)	0.96	14	13	23.1	13.9	–	–	29.1
O=C(O)CCCC(=O)N(c1ccc(Cl)cc1)C(C(=O)c1ccc(Cl)cc1)c1ccc(F)cc1Cl (stereo unspecified)	0.78	10.1	11.4	29.6	9.83	–	–	–
CCN1CCN(C(=O)CCC(=O)N(c2ccc(Cl)cc2)C(C(=O)c2ccc(Cl)cc2)c2ccc(F)cc2Cl)CC1 (stereo unspecified)	0.69	6.24	5.82	20.9	5.93	–	–	9.37
O=C(c1ccccc1)C(Cc1ccccc1)C(=O)c1ccccc1	25.8	–	–	–	–	11.2	9.88	–
O=C(c1ccc(Cl)cc1)C(Nc1ccc(Cl)cc1)c1cc(F)cc(F)c1 (stereo unspecified)	24.7	> 40	> 40	–	–	–	–	–
COc1ccc(NC(C(=O)c2ccc(Cl)cc2)c2ccc(F)cc2Cl)cc1 (stereo unspecified)	27.8	30.1	29.3	–	–	–	–	–
Cc1cccc(CC(C(=O)c2ccc(Cl)cc2)C(=O)c2cc(F)ccc2F)c1 (stereo unspecified)	22.5	–	–	–	–	33.7	24.6	–
CCOc1cc(/C=C2\C(=O)N(c3ccccc3)N=C2C)cc(Cl)c1OCC(=O)OC	–	–	12.9	–	–	–	–	0.78
O=C(O)/C=C/C(=O)N(c1ccc(Cl)cc1)C(C(=O)c1ccc(Cl)cc1)c1ccc(F)cc1Cl (stereo unspecified)	1.1	15.4	15	31.3	15.6	–	–	–
O=C(c1ccc(Cl)cc1)C(Nc1ccccc1)c1ccccc1 (stereo unspecified)	18.3	> 40	> 40	–	–	–	–	–
O=C(c1ccc(Cl)cc1)C(c1ccc(F)cc1Cl)N(C(=O)CCC(=O)N1CCN(CCO)CC1)c1ccc(Cl)cc1 (stereo unspecified)	0.48	3.97	4.42	15.6	4.36	–	–	11.6
O=C(CCC(=O)N(c1ccc(Cl)cc1)C(C(=O)c1ccc(Cl)cc1)c1ccc(F)cc1Cl)NCCN1CCOCC1 (stereo unspecified)	0.56	7.69	5.44	28.4	6.74	–	–	13
COC(=O)CCC(=O)N(c1ccc(Cl)cc1)C(C(=O)c1ccc(Cl)cc1)c1ccc(F)cc1Cl (stereo unspecified)	1.39	19.6	20.8	32.4	18.9	–	–	–

SMILES	Ki [1] [µM]	IC50 [2] [µM]	IC50 [3] [µM]	IC50 [4] [µM]	IC50 [5] [µM]	inhibition at 10 µM [6] [%]	inhibition at 10 µM [7] [%]	Ki [8] [µM]
CC(=O)N1CCN(C(=O)CCC(=O)N(c2ccc(Cl)cc2)C(C(=O)c2ccc(Cl)cc2)c2ccc(F)cc2Cl)CC1 (stereo unspecified)	0.35	4.21	4.1	26.8	3.79	–	–	7.43
O=C(c1ccc(Cl)cc1)C(Cc1ccc(Cl)nc1)C(=O)c1cc(F)ccc1F (stereo unspecified)	15.3	–	–	–	–	39.4	20.1	–
O=C(c1ccc(Cl)cc1)C(Nc1cccc(Cl)c1)c1ccc(F)cc1Cl (stereo unspecified)	6.92	16.6	14.1	–	–	–	–	–
O=C(c1ccc(Cl)cc1)C(Nc1ccc(Cl)cc1)c1cc(F)ccc1F (stereo unspecified)	14.9	21.5	21.8	–	–	–	–	–
O=C(c1ccc(Cl)cc1)C(Cc1cccc(Cl)c1)C(=O)c1cc(F)ccc1F (stereo unspecified)	6.02	–	–	–	–	51.8	48.1	–
COc1cccc(CC(C(=O)c2ccc(Cl)cc2)C(=O)c2cc(F)ccc2F)c1 (stereo unspecified)	14.6	–	–	–	–	26.3	18.3	–
COc1ccc(S(=O)(=O)N(c2ccc(Cl)cc2)C(C(=O)c2ccc(Cl)cc2)c2ccc(F)cc2Cl)cc1 (stereo unspecified)	0.65	12	9.64	30.5	10.4	–	–	15.6
O=C(c1ccc(Cl)cc1)C(Nc1ccc(F)cc1)c1ccc(F)cc1Cl (stereo unspecified)	7.34	15.6	17.2	–	–	–	–	–
O=C(c1ccc(Cl)cc1)C(Cc1ccsc1)C(=O)c1cc(F)ccc1F (stereo unspecified)	14	–	–	–	–	31.8	15.3	–
O=C(c1ccc(F)cc1)C(Nc1ccc(Cl)cc1)c1ccc(Cl)cc1 (stereo unspecified)	12.3	18.8	15	–	–	–	–	–
O=C(c1ccc(Cl)cc1)C(Nc1cc(F)cc(F)c1)c1ccc(Cl)cc1F (stereo unspecified)	2.45	13.3	13.6	–	–	–	–	–
O=C(c1ccc(Cl)cc1)C(Cc1cc(Cl)cc(Cl)c1)C(=O)c1cc(F)ccc1F (stereo unspecified)	7.69	–	–	–	–	33.5	9.49	–
O=C(c1ccc(Cl)cc1)C(Cc1ccccc1Cl)C(=O)c1cc(F)ccc1F (stereo unspecified)	15.1	–	–	–	–	25.4	22.7	–
O=C(c1ccccc1)C(Nc1ccccc1)c1ccccc1 (stereo unspecified)	38.2	> 40	> 40	–	–	–	–	–
COc1ccc(C(=O)C(Nc2ccc(C)cc2)c2ccc(OC)cc2)cc1 (stereo unspecified)	16.5	33	32.8	–	–	–	–	–
COC(=O)CCCCC(=O)N(c1ccc(Cl)cc1)C(C(=O)c1ccc(Cl)cc1)c1ccc(F)cc1Cl (stereo unspecified)	0.82	14.1	13.7	37.2	12.3	–	–	–
O=C(c1ccc(Cl)cc1)C(Cc1ccc(Cl)cc1)C(=O)c1cc(F)ccc1F (stereo unspecified)	23.5	–	–	–	–	5.64	10.9	–
O=C(c1ccc(Cl)cc1)C(Nc1ccc(Cl)cc1)c1ccc(F)c(Cl)c1 (stereo unspecified)	24.2	29.2	21.3	–	–	–	–	–
O=C(c1ccc(Cl)cc1)C(Nc1ccc(Cl)cc1)c1ccc(F)cc1Cl (stereo unspecified)	0.91	11.7	9.84	–	–	–	–	–
O=C(c1ccc(Cl)cc1)C(Nc1cc(F)cc(F)c1)c1ccc(Cl)c(Cl)c1 (stereo unspecified)	6.86	13.5	13.1	–	–	–	–	–
O=C(c1ccc(Cl)cc1)C(Nc1cccc(Cl)c1F)c1ccc(Cl)c(Cl)c1 (stereo unspecified)	2.13	11.1	11	–	–	–	–	–
O=C(c1ccc(Cl)cc1)C(Cc1cccc(C(F)(F)F)c1)C(=O)c1cc(F)ccc1F (stereo unspecified)	13.4	–	–	–	–	48.4	42.9	–
O=C(O)c1ccc(C(=O)N(c2ccc(Cl)cc2)C(C(=O)c2ccc(Cl)cc2)c2ccc(F)cc2Cl)cc1 (stereo unspecified)	0.32	2.26	1.03	16.8	1.95	–	–	4.22
O=C(c1ccc(Cl)cc1)C(Cc1ccc(-c2ccccc2)cc1)C(=O)c1cc(F)ccc1F (stereo unspecified)	24.5	–	–	–	–	29.9	13.2	–

Source: ChEMBL document CHEMBL5360555, “Structure-based discovery of novel α-aminoketone derivatives as dual p53-MDM2/MDMX inhibitors for the treatment of cancer” (Eur J Med Chem, 2023)
